One data set concerns MCF7. In words: Growth inhibition of human MCF7 cells by MTT assay. Type of data set: functional.
A further data set deals with A549. In words: Growth inhibition of human A549 cells by MTT assay. Type of data set: functional. A general note: Tetrazolium dyes change colour on reduction, which living cells bring about.
For another data set, the system named is T98G. In words: Growth inhibition of human T98G cells by MTT assay. The format is functional.
The subject of the next data set is SK-MEL-28. As to the kind of experiment: Growth inhibition of human SK-MEL-28 cells by MTT assay. Type of data set: functional.
The nature of data set [1]: Lipophilicity, log P of the compound. The note with it: octanol/water. The format is physicochemical.
The test system of the next data set is B16-F10. As to the kind of experiment: Growth inhibition of mouse B16F10 cells by MTT assay. The format is functional.
Data set [2] can be described thus: Growth inhibition of human Hs683 cells by MTT assay. Type of data set: functional. Conditions: Hs 683.

Usually GI50 stands for the concentration at which growth is held to half of that of the control. Read a low GI50 as more potent growth inhibition. The logP is a log measure of how a compound divides between an organic and an aqueous phase.

SMILES strings stand for the structures. Where only a bound is given, the exact number is not on record here.

For `O[C@H]1[C@H]2c3cc4c(cc3CN3CCC(=C[C@@H]1O)[C@H]23)OCO4` [LYCORINE], the GI50 in the data set with MCF7 amounted to 10.9 µM; in the data set with A549, 3 µM; in the data set with T98G, 5.2 µM; in the data set on SK-MEL-28 it was 3.7 µM; with B16-F10, 2.6 µM; in data set [2], 2.1 µM. Moreover, the logP in data set [1] was -0.78.

Turning to `C1=C2CCN3Cc4cc5c(cc4[C@H]([C@H](OCC4CC4)[C@H]1OCC1CC1)[C@@H]23)OCO5`, the GI50 with MCF7 was 28 µM; in the data set with A549 it was 4.2 µM; with T98G, 37 µM; with SK-MEL-28, 33 µM; with B16-F10, 27 µM; in data set [2], 23 µM. For the same molecule, the log partition coefficient (logP) in data set [1] came to 1.19.

As for `CSCO[C@H]1C=C2CCN3Cc4cc5c(cc4[C@H]([C@@H]1O)[C@@H]23)OCO5`, the GI50 in the data set on MCF7 was 70 µM; in the data set with A549 it was 60 µM; with T98G it was greater than 100 µM; in the data set with SK-MEL-28 it was greater than 100 µM; in the data set on B16-F10, 51 µM; in data set [2] it was 86 µM.

Turning to `C1=C2CCN3Cc4cc5c(cc4[C@H]([C@H](OCC4CCC4)[C@H]1OCC1CCC1)[C@@H]23)OCO5`, the GI50 in the data set on MCF7 came to 25 µM; in the data set on A549, 5.7 µM; in the data set on T98G it was 18 µM; in the data set with SK-MEL-28, 22 µM; with B16-F10 it was 8 µM; in data set [2], 14 µM.

For the molecule `COCCO[C@H]1C=C2CCN3Cc4cc5c(cc4[C@H]([C@@H]1O)[C@@H]23)OCO5`, the GI50 was 74 µM in the data set with MCF7; 26 µM in the data set on A549; 47 µM with T98G; 91 µM in the data set on SK-MEL-28; 40 µM in the data set on B16-F10; greater than 100 µM in data set [2].

In the case of `O[C@H]1[C@H]2c3cc4c(cc3CN3CCC(=C[C@@H]1OC/C=C/c1ccccc1)[C@H]23)OCO4`, the GI50 came out at 3.8 µM in the data set on MCF7; 1.5 µM with A549; 10 µM in the data set on T98G; 14 µM in the data set on SK-MEL-28; 4.2 µM with B16-F10; 8.6 µM in data set [2].

Turning to `C#CCCCO[C@H]1C=C2CCN3Cc4cc5c(cc4[C@H]([C@@H]1O[Si](C(C)C)(C(C)C)C(C)C)[C@@H]23)OCO5`, the GI50 in the data set on MCF7 amounted to 31 µM; with A549 it was 5.9 µM; with T98G, 16 µM; with SK-MEL-28, 32 µM; with B16-F10, 9 µM; in data set [2], 40 µM.

The values are drawn from ChEMBL document CHEMBL3112496, “C1,C2-ether derivatives of the Amaryllidaceae alkaloid lycorine: retention of activity of highly lipophilic analogues against cancer cells” (Bioorg Med Chem Lett, 2014).
